{"source": "patent US11752154B2", "about": "“Pharmaceutical compositions comprising sepiapterin and uses thereof” (PTC Therapeutics MP, Inc., priority 2017, dated 2023)", "key": {"[1]": {"test": "Determination of BH4 and sepiapterin levels in plasma, liver, kidney and urine after sepiapterin or BH4 (Example 4)", "assay_type": "in vivo", "settings": "for kidney, liver and urine exposure to BH4 versus dose level: 20, 60 or 180 mg/kg", "procedure": "Animals were administered the test items, sepiapterin or BH4, at dose levels of 20, 60 or 180 mg/kg. Blood, liver, kidney and urine samples (where possible) were collected from 3 animals/timepoints/group on the day of dosing at 0 (pre-dose, controls only), 0.5, 1, 2, 4, and 8 hours post-dose. Samples were assayed for sepiapterin or BH4 (not quantified in plasma) and non-compartmental pharmacokinetic analysis was performed."}, "[2]": {"test": "Kinetic solubility and disproportionation of sepiapterin salts and/or co-crystals in water and Medisca Oral Mix (Example 8)", "assay_type": "physicochemical", "settings": "for Solubility / Form change / Purity (area %) / solubility at 1 hr / solubility at 4 hr / solubility at 24 hr: RT; for Solubility / solubility at 1 hr / solubility at 4 hr / solubility at 24 hr: calculated using freebase, target conc. ~7 mg/mL; for Form change: residual solids by XRPD; for Purity (area %): supernatant, for reference only; for form of residual solids: water and Medisca Oral Mix, after 1 hour; for solubility at 1 hr / solubility at 4 hr / solubility at 24 hr: thermodynamic from solid", "procedure": "The kinetic solubility was evaluated for nicotinate, phosphate, L-tartrate, and fumarate salts and/or co-crystals of sepiapterin in water and Medisca Oral Mix. X-ray powder diffraction (XRPD) was performed for the residual solids to identify form change/disproportionation. Solids were suspended into the media with target conc. of ˜7 mg/mL (calculated by freebase). The suspensions were agitated on a rolling incubator at 25 rpm for 1, 4 and 24 hrs. At each time point, 1 mL of the suspension was pipetted out for centrifugation at 10000 rpm (2 min) and filtration through 0.45 μm membrane to obtain supernatant for HPLC solubility and pH tests, the residual solids were analyzed by XRPD."}, "[3]": {"test": "Stability analysis of salts and/or co-crystals of sepiapterin (Example 7)", "assay_type": "physicochemical", "settings": "25° C./60% RH and 40° C./75% RH, two weeks", "procedure": "The stability of the prepared salts and/or co-crystals was analyzed after […] at 25° C. and 60% relative humidity and 40° C. and 75% relative humidity. […] None of the phosphate, tartrate, or nicotinate salts and/or co-crystals underwent a form change during the stability testing, and each of them retained greater than 97% purity over the two weeks of the study. In fact, both the tartrate and nicotinate both retained greater than 99% purity."}, "[4]": {"settings": "Medisca Oral Mix, 1 hr, listed as L-tartrate salt and/or co-crystal"}, "[5]": {"settings": "Water, 1 hr, listed as L-tartrate salt and/or co-crystal"}, "[6]": {"settings": "Water, 4 hr, listed as L-tartrate salt and/or co-crystal"}, "[7]": {"settings": "Water, 24 hr, listed as L-tartrate salt and/or co-crystal"}, "[8]": {"settings": "Medisca Oral Mix, 24 hr, listed as phosphate salt and/or co-crystal"}, "[9]": {"settings": "Water, 1 hr, listed as phosphate salt and/or co-crystal"}, "[10]": {"settings": "Water, 4 hr, listed as phosphate salt and/or co-crystal"}, "[11]": {"settings": "Water, 24 hr, listed as phosphate salt and/or co-crystal"}}, "data": [{"smiles": "C[C@H](O)[C@H](O)[C@H]1CNc2nc(N)[nH]c(=O)c2N1", "note": "[BH4, tetrahydrobiopterin, reference compound]", "values": [{"measurement": "kidney, liver and urine exposure to BH4 versus dose level", "setting": "[1]", "value": "decreased as the dose level increased"}]}, {"smiles": "C[C@H](O)C(=O)C1=Nc2c(nc(N)[nH]c2=O)NC1", "note": "[L-Tartrate]", "values": [{"measurement": "Solubility", "setting": "[2]; [4]", "value": 2000, "unit": "µg/mL"}, {"measurement": "Solubility", "setting": "[2]; [5]", "value": 1600, "unit": "µg/mL"}, {"measurement": "Solubility", "setting": "[2]; [6]", "value": 1800, "unit": "µg/mL"}, {"measurement": "Solubility", "setting": "[2]; [7]", "value": 1800, "unit": "µg/mL"}, {"measurement": "Form change", "setting": "[2]; Medisca Oral Mix, 1 hr, ** = low crystallinity, listed as L-tartrate salt and/or co-crystal", "value": "Yes"}, {"measurement": "Form change", "setting": "[2]; Medisca Oral Mix, 4 hr, ** = low crystallinity, listed as L-tartrate salt and/or co-crystal", "value": "Yes"}, {"measurement": "Form change", "setting": "[2]; Medisca Oral Mix, 24 hr, ** = low crystallinity, listed as L-tartrate salt and/or co-crystal", "value": "Yes"}, {"measurement": "Form change", "setting": "[2]; [5]", "value": "Yes"}, {"measurement": "Form change", "setting": "[2]; [6]", "value": "Yes"}, {"measurement": "Form change", "setting": "[2]; [7]", "value": "Yes"}, {"measurement": "Purity (area %)", "setting": "[2]; [4]", "value": 99.68, "unit": "area %"}, {"measurement": "Purity (area %)", "setting": "[2]; Medisca Oral Mix, 4 hr, listed as L-tartrate salt and/or co-crystal", "value": 99.54, "unit": "area %"}, {"measurement": "Purity (area %)", "setting": "[2]; Medisca Oral Mix, 24 hr, listed as L-tartrate salt and/or co-crystal", "value": 95.67, "unit": "area %"}, {"measurement": "Purity (area %)", "setting": "[2]; [5]", "value": 99.34, "unit": "area %"}, {"measurement": "Purity (area %)", "setting": "[2]; [6]", "value": 99.07, "unit": "area %"}, {"measurement": "Purity (area %)", "setting": "[2]; [7]", "value": 95.61, "unit": "area %"}, {"measurement": "form of residual solids", "setting": "[2]", "value": "converted to freebase"}, {"measurement": "form change during the stability testing", "setting": "[3]", "value": "None"}]}, {"smiles": "C[C@H](O)C(=O)C1=Nc2c(nc(N)[nH]c2=O)NC1", "note": "[Nicotinate]", "values": [{"measurement": "solubility at 1 hr", "setting": "[2]; Medisca Oral Mix, aqueous with cosolvent or surfactant or cyclodextrin, 1 hr", "value": 2600, "unit": "µg/mL"}, {"measurement": "solubility at 4 hr", "setting": "[2]; Medisca Oral Mix, aqueous with cosolvent or surfactant or cyclodextrin, 4 hr", "value": 3100, "unit": "µg/mL"}, {"measurement": "solubility at 24 hr", "setting": "[2]; Medisca Oral Mix, aqueous with cosolvent or surfactant or cyclodextrin, 24 hr", "value": 3500, "unit": "µg/mL"}, {"measurement": "Form change", "setting": "[2]; Medisca Oral Mix, 1 hr, ** = low crystallinity, listed as nicotinate salt and/or co-crystal", "value": "Yes"}, {"measurement": "Form change", "setting": "[2]; Medisca Oral Mix, 4 hr, ** = low crystallinity, listed as nicotinate salt and/or co-crystal", "value": "Yes"}, {"measurement": "Form change", "setting": "[2]; Medisca Oral Mix, 24 hr, ** = low crystallinity, listed as nicotinate salt and/or co-crystal", "value": "Yes"}, {"measurement": "Form change", "setting": "[2]; Water, 1 hr, listed as nicotinate salt and/or co-crystal", "value": "Yes"}, {"measurement": "Form change", "setting": "[2]; Water, 4 hr, listed as nicotinate salt and/or co-crystal", "value": "Yes"}, {"measurement": "Form change", "setting": "[2]; Water, 24 hr, listed as nicotinate salt and/or co-crystal", "value": "Yes"}, {"measurement": "form of residual solids", "setting": "[2]", "value": "converted to freebase"}, {"measurement": "solubility at 1 hr", "setting": "[2]; water, 1 hr", "value": 1500, "unit": "µg/mL"}, {"measurement": "solubility at 4 hr", "setting": "[2]; water, 4 hr", "value": 2300, "unit": "µg/mL"}, {"measurement": "solubility at 24 hr", "setting": "[2]; water, 24 hr", "value": 1800, "unit": "µg/mL"}, {"measurement": "form change during the stability testing", "setting": "[3]", "value": "None"}]}, {"smiles": "C[C@H](O)C(=O)C1=Nc2c(nc(N)[nH]c2=O)NC1", "note": "[Phosphate]", "values": [{"measurement": "Solubility", "setting": "[2]; [8]", "value": 2100, "unit": "µg/mL"}, {"measurement": "Solubility", "setting": "[2]; [9]", "value": 1700, "unit": "µg/mL"}, {"measurement": "Solubility", "setting": "[2]; [10]", "value": 2000, "unit": "µg/mL"}, {"measurement": "Solubility", "setting": "[2]; [11]", "value": 1900, "unit": "µg/mL"}, {"measurement": "Form change", "setting": "[2]; Medisca Oral Mix, 1 hr, ** = low crystallinity, listed as phosphate salt and/or co-crystal", "value": "Yes**"}, {"measurement": "Form change", "setting": "[2]; Medisca Oral Mix, 4 hr, ** = low crystallinity, listed as phosphate salt and/or co-crystal", "value": "Yes**"}, {"measurement": "Form change", "setting": "[2]; Medisca Oral Mix, 24 hr, ** = low crystallinity, listed as phosphate salt and/or co-crystal", "value": "Yes**"}, {"measurement": "Form change", "setting": "[2]; [9]", "value": "Yes"}, {"measurement": "Form change", "setting": "[2]; [10]", "value": "Yes"}, {"measurement": "Form change", "setting": "[2]; [11]", "value": "Yes"}, {"measurement": "Purity (area %)", "setting": "[2]; Medisca Oral Mix, 1 hr, listed as phosphate salt and/or co-crystal", "value": 99.23, "unit": "area %"}, {"measurement": "Purity (area %)", "setting": "[2]; Medisca Oral Mix, 4 hr, listed as phosphate salt and/or co-crystal", "value": 98.95, "unit": "area %"}, {"measurement": "Purity (area %)", "setting": "[2]; [8]", "value": 87.63, "unit": "area %"}, {"measurement": "Purity (area %)", "setting": "[2]; [9]", "value": 89.92, "unit": "area %"}, {"measurement": "Purity (area %)", "setting": "[2]; [10]", "value": 89.52, "unit": "area %"}, {"measurement": "Purity (area %)", "setting": "[2]; [11]", "value": 82.64, "unit": "area %"}, {"measurement": "form of residual solids", "setting": "[2]", "value": "converted to freebase"}, {"measurement": "form change during the stability testing", "setting": "[3]", "value": "None"}]}, {"smiles": "C[C@H](O)C(=O)C1=Nc2c(nc(N)[nH]c2=O)NC1", "note": "[sepiapterin]", "values": [{"measurement": "kidney, liver and urine exposure to BH4 versus dose level", "setting": "[1]", "value": "decreased as the dose level increased"}, {"measurement": "kidney BH4 Cmax following sepiapterin administration versus BH4 alone", "setting": "[1]; except at the high-dose", "value": "similar"}, {"measurement": "secondary peak of absorption (plasma sepiapterin)", "setting": "[1]; low- and mid-dose levels, post-dose", "value": 8, "unit": "h"}, {"measurement": "sepiapterin exposure amongst the analyzed matrices", "setting": "[1]; plasma, liver, kidney, urine", "value": "highest in urine"}, {"measurement": "dose proportionality of circulating sepiapterin exposure", "setting": "[1]; plasma, entire dose range", "value": "much greater than dose proportional"}, {"measurement": "time of maximum sepiapterin plasma concentrations", "setting": "[1]; post-dose, sepiapterin 20, 60 or 180 mg/kg", "value": "30 minutes or 2 hours"}, {"measurement": "sepiapterin detected in the liver and kidney", "setting": "[1]; sepiapterin 20, 60 or 180 mg/kg", "value": "only at 30 minutes post-dose and only in the liver for the mid- or high-dose"}, {"measurement": "dose proportionality of sepiapterin exposure", "setting": "[1]; urine, liver and kidney, entire dose range", "value": "less than dose proportional"}]}]}
